Measurements reported in ChEMBL document CHEMBL1201862, “PubChem BioAssay data set” (2004).
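Each compound was tested at five concentrations against cells in 96-well plates for 48 hours. The concentration for 50% growth inhibition is given as GI50.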 The source made the active and inactive calls. No stated cut-off is given here; in the data, active = GI50 up to about 1.1 µM and inactive = higher.

What was measured:
Assay in all cases: inhibition of tumour cell growth, NCI panel, 48 h
786-0 = tested on: 786-0
A549 = tested on: A549
CCRF-CEM = tested on: CCRF-CEM
DU-145 = tested on: DU-145
HCT-116 = tested on: HCT-116
HL-60 = tested on: HL-60
HT-29 = tested on: HT-29
Hs-578T = tested on: Hs-578T
IGROV-1 = tested on: IGROV-1
KM12 = tested on: KM12
LOX IMVI = tested on: LOX IMVI
MOLT-4 = tested on: MOLT-4
NCI-H226 = tested on: NCI-H226
NCI-H23 = tested on: NCI-H23
OVCAR-5 = tested on: OVCAR-5
RPMI-8226 = tested on: RPMI-8226
RXF 393 = tested on: RXF 393
SF-268 = tested on: SF-268
SK-OV-3 = tested on: SK-OV-3
SR = tested on: SR

Measured: GI50

CC/C(Cl)=N\OC(=O)Nc1ccc(OC)c(C)c1
inactive: 786-0 12.5 µM | A549 27.9 µM | CCRF-CEM 4.93 µM | DU-145 28 µM | HCT-116 12.6 µM | HL-60 3.5 µM | HT-29 17.4 µM | Hs-578T 16.9 µM | IGROV-1 16.4 µM | KM12 23.8 µM | LOX IMVI 10.9 µM | MOLT-4 5.74 µM | NCI-H226 26.4 µM | NCI-H23 15 µM | OVCAR-5 30.5 µM | RPMI-8226 11.9 µM | RXF 393 14.6 µM | SF-268 29.2 µM | SK-OV-3 58.6 µM | SR 3.04 µM

O=c1c2cc(-c3ccccc3)sc2nc2n1N=C(c1ccc(Cl)cc1)CS2
inactive: 786-0 > 100 µM | A549 > 100 µM | CCRF-CEM > 100 µM | DU-145 > 100 µM | HCT-116 > 100 µM | HL-60 > 100 µM | HT-29 > 100 µM | Hs-578T > 100 µM | IGROV-1 > 100 µM | KM12 > 100 µM | LOX IMVI > 100 µM | MOLT-4 > 100 µM | NCI-H226 > 100 µM | NCI-H23 > 100 µM | OVCAR-5 > 100 µM | RPMI-8226 > 100 µM | RXF 393 > 100 µM | SF-268 > 100 µM | SK-OV-3 > 100 µM | SR > 100 µM

O=C1C=CC(=O)[C@H]2C3C=CC(C4C3C3(Cl)C(Cl)=C(Cl)[C@]4(Cl)C3(Cl)Cl)[C@@H]12 (stereo not given in full)
inactive: 786-0 5.94 µM | A549 4.03 µM | CCRF-CEM 2.95 µM | DU-145 8.97 µM | HCT-116 3.61 µM | HL-60 1.57 µM | HT-29 3.66 µM | Hs-578T 10.9 µM | IGROV-1 5.79 µM | KM12 4.92 µM | LOX IMVI 3.32 µM | MOLT-4 3.75 µM | NCI-H226 6.47 µM | NCI-H23 12.6 µM | OVCAR-5 7.46 µM | RPMI-8226 3.3 µM | RXF 393 4.17 µM | SF-268 5.71 µM | SK-OV-3 14.2 µM | SR 1.66 µM
